Data set [1] has as its system DLD-1. Nature of the data set: MTS assay, DLD-1. The data set is classed as cell-based. As to conditions: Homo sapiens, 72 hours, 1 Percent FBS. In general terms: Tetrazolium assays rely on reduction of a dye to a coloured formazan, in cell work by metabolically active cells.
In data set [2] the test system is MDA-MB-231. Nature of the data set: MTS assay, MDA-MB-231. The class given is cell-based. The conditions noted are these: Homo sapiens, 72 hours, 1 Percent FBS.

Molecules are shown by their SMILES. Where a name gives a salt, the structure may show the parent alone.

Usually melting point stands for the temperature of the solid-liquid transition. For the molecule `COc1cccc(CNc2nccc(-c3cc(N4CCN(CCCN(C)C5CCCCC5)CC4)c4cc(OC)ccc4c3)n2)c1` (as salt: hydrochloride) [Compound 202, 4-(4-(4-(3-(cyclohexyl(methyl)amino)propyl)piperazin-1-yl)-6-methoxynaphthalen-2-yl)-N-(3-methoxybenzyl)pyrimidin-2-amine], the melting point fell in the range of 155 to 161 °C. `CNc1nccc(-c2cc(NCCCNCCCN(C)C)c3cc(OC)ccc3c2)n1` [Compound 191, N′-[3-({7-methoxy-3-[2-(methylamino)pyrimidin-4-yl]-1-naphthyl}amino)propyl]-N,N-dimethylpropane-1,3-diamine] registered a melting point of 142 to 144 °C. Consider `COc1cccc(CNc2nccc(-c3cc(N4CCN(CCCN5CCC5)CC4)c4cc(OC)ccc4c3)n2)c1` (as salt: hydrochloride) [Compound 200, 4-(4-(4-(3-(azetidin-1-yl)propyl)piperazin-1-yl)-6-methoxynaphthalen-2-yl)-N-(3-methoxybenzyl)pyrimidin-2-amine], for which the melting point is 122 to 130 °C.

Consider `CCN(C)CCCN1CCN(c2cc(-c3ccnc(NCc4cccc(OC)c4)n3)cc3ccc(OC)cc23)CC1` (as salt: hydrochloride) [Compound 201, 4-(4-(4-(3-(ethyl(methyl)amino)propyl)piperazin-1-yl)-6-methoxynaphthalen-2-yl)-N-(3-methoxybenzyl)pyrimidin-2-amine], for which the melting point was 160 to 169 °C. `CNc1nccc(-c2cc(NC(=O)c3ccc(C(F)(F)F)cc3)c3cc(OC)ccc3c2)n1` [Compound 187, N-{7-methoxy-3-[2-(methylamino)pyrimidin-4-yl]-1-naphthyl}-4-(trifluoromethyl)benzamide]: the melting point fell in the range of 227 to 229 °C. `CNc1nccc(-c2cc(NC(=O)CNCCO)c3cc(OC)ccc3c2)n1` [Compound 138, 2-((2-hydroxyethyl)amino)-N-(7-methoxy-3-(2-(methylamino)pyrimidin-4-yl)naphthalen-1-yl)acetamide] displayed a melting point of 169 to 172 °C. The same measure, in the same setting: as for `COc1ccc2cc(-c3ccnc(N(C)C)n3)cc(NC3CCN(c4ncnc5[nH]nc(Br)c45)CC3)c2c1` [Compound 144, 4-(4-((1-(3-bromo-1H-pyrazolo[3,4-d]pyrimidin-4-yl)piperidin-4-yl)amino)-6-methoxynaphthalen-2-yl)-N,N-dimethylpyrimidin-2-amine], the figure is 167 to 172 °C; as for `COc1cccc(CNc2nccc(-c3cc(N4CCN(CCCN5CCOCC5)CC4)c4cc(OC)ccc4c3)n2)c1` [Compound 196, 4-(6-methoxy-4-(4-(3-morpholinopropyl)piperazin-1-yl)naphthalen-2-yl)-N-(3-methoxybenzyl)pyrimidin-2-amine], 65 to 73 °C; as for `CCCN(C)CCCN1CCN(c2cc(-c3ccnc(NCc4cccc(OC)c4)n3)cc3ccc(OC)cc23)CC1` (as salt: hydrochloride) [Compound 199, 4-(6-methoxy-4-(4-(3-(methyl(propyl)amino)propyl)piperazin-1-yl)naphthalen-2-yl)-N-(3-methoxybenzyl)pyrimidin-2-amine], 156 to 160 °C. On to `CNc1nccc(-c2cc(NC(=O)c3ccccc3)c3cc(OC)ccc3c2)n1` [Compound 185, N-{7-methoxy-3-[2-(methylamino)pyrimidin-4-yl]-1-naphthyl}benzamide], for which the melting point was in the range of 201 to 203 °C. For `CNc1nccc(-c2cc(NC(=O)c3ccc(OC)cc3)c3cc(OC)ccc3c2)n1` [Compound 188, 4-methoxy-N-{7-methoxy-3-[2-(methylamino)pyrimidin-4-yl]-1-naphthyl}benzamide], the melting point was in the range of 214 to 215 °C.

Consider `COc1cccc(CNc2nccc(-c3cc(N4CCN(CCCN5CCCC5)CC4)c4cc(OC)ccc4c3)n2)c1` (as salt: hydrochloride) [Compound 198, 4-(6-methoxy-4-(4-(3-(pyrrolidin-1-yl)propyl)piperazin-1-yl)naphthalen-2-yl)-N-(3-methoxybenzyl)pyrimidin-2-amine], for which the melting point was in the range of 160 to 167 °C. `COc1cccc(CCNc2nccc(-c3cc(N4CCN(c5ncnc6[nH]nc(Br)c56)CC4)c4cc(OC)ccc4c3)n2)c1` [Compound 180, 4-{4-[4-(3-bromo-1H-pyrazolo[3,4-d]pyrimidin-4-yl)piperazin-1-yl]-6-methoxy-2-naphthyl}-N-[2-(3-methoxyphenyl)ethyl]pyrimidin-2-amine]: the melting point lay in the range of 200 to 203 °C.

On to `COc1cccc(CNc2nccc(-c3cc(N4CCN(CCCN5CCCCC5)CC4)c4cc(OC)ccc4c3)n2)c1` [Compound 194, 4-(6-methoxy-4-(4-(3-(piperidin-1-yl)propyl)piperazin-1-yl)naphthalen-2-yl)-N-(3-methoxybenzyl)pyrimidin-2-amine], for which the melting point is 63 to 75 °C.

As for `CNc1nccc(-c2cc(NCCCSC(=N)N)c3cc(OC)ccc3c2)n1` [Compound 192, 3-({7-methoxy-3-[2-(methylamino)pyrimidin-4-yl]-1-naphthyl}amino)propyl imidothiocarbamate], the melting point is 94 to 97 °C. Turning to `COc1ccc2cc(-c3ccnc(NCCc4ccc(OC)c(OC)c4)n3)cc(N3CCNCC3)c2c1` (as salt: HCl) [Compound 110, N-(3,4-dimethoxyphenethyl)-4-(6-methoxy-4-(piperazin-1-yl)naphthalen-2-yl)pyrimidin-2-amine], the melting point lay within 138 to 140 °C. On the same count and under the same terms, as for `COCCCNc1nccc(-c2cc(N3CCN(c4ncnc5[nH]nc(Br)c45)CC3)c3cc(OC)ccc3c2)n1` [Compound 177, 4-{4-[4-(3-bromo-1H-pyrazolo[3,4-d]pyrimidin-4-yl)piperazin-1-yl]-6-methoxy-2-naphthyl}-N-(3-methoxypropyl)pyrimidin-2-amine], the figure is 225 to 227 °C; as for `COc1ccc2cc(-c3ccnc(NCCCN(C)C)n3)cc(N3CCNCC3)c2c1` [Compound 114, N′-[4-(6-methoxy-4-piperazin-1-yl-2-naphthyl)pyrimidin-2-yl]-N,N-dimethylpropane-1,3-diamine], 188 to 190 °C; as for `COc1ccc2cc(-c3ccnc(NCCCN(C)C)n3)cc(N3CCN(c4ncnc5[nH]nc(Br)c45)CC3)c2c1` [Compound 178, N1-(4-(4-(4-(3-bromo-1H-pyrazolo[3,4-d]pyrimidin-4-yl)piperazin-1-yl)-6-methoxynaphthalen-2-yl)pyrimidin-2-yl)-N3,N3-dimethylpropane-1,3-diamine], 152 to 155 °C. Broadly, the inhibition is the share of the control response that was lost under treatment. Low readings indicate little suppression, high ones strong suppression. In the case of `COc1ccc2cc(-c3ccnc(NCc4ccccn4)n3)cc(N3CCNCC3)c2c1` [Compound 120, 4-(6-methoxy-4-piperazin-1-yl-2-naphthyl)-N-(pyridin-2-ylmethyl)pyrimidin-2-amine], the inhibition at 10 µM came out at 83% in data set [1] and 78% in data set [2]. In the case of `COc1ccc(CNc2nccc(-c3cc(NC(=O)OC(C)(C)C)c4cc(OC)ccc4c3)n2)cc1` [Compound 104, tert-butyl (7-methoxy-3-{2-[(4-methoxybenzyl)amino]pyrimidin-4-yl}-1-naphthyl)carbamate], the inhibition at 10 µM in data set [1] was determined as 48%; in data set [2] it was 30%.

Consider `COc1ccc2cc(-c3ccnc(NCCc4cccnc4)n3)cc(N3CCOCC3)c2c1` [Compound 21, 4-(6-methoxy-4-morpholin-4-yl-2-naphthyl)-N-(2-pyridin-3-ylethyl)pyrimidin-2-amine], for which the inhibition at 10 µM in data set [1] is 97%; in data set [2], 99%. On the same counts, the results for `CNc1nccc(-c2cc(NC3CCN(c4ncccc4C(=O)OC)CC3)c3cc(OC)ccc3c2)n1` [Compound 168, methyl 2-[4-({7-methoxy-3-[2-(methylamino)pyrimidin-4-yl]-1-naphthyl}amino)piperidin-1-yl]nicotinate] are 98% and 99%. As to `CNc1nccc(-c2cc(NC(=O)CN3CCN(CCN4CCCC4)CC3)c3cc(OC)ccc3c2)n1` [Compound 64, N-{7-methoxy-3-[2-(methylamino)pyrimidin-4-yl]-1-naphthyl}-2-[4-(2-pyrrolidin-1-ylethyl)piperazin-1-yl]acetamide], the results for the inhibition at 10 µM in data set [1] and in data set [2] were 89% and 71%, respectively.

In the case of `COc1ccc2cc(-c3ccnc(NCc4cncn4C)n3)cc(N3CCOCC3)c2c1` [Compound 16, 4-(6-methoxy-4-morpholin-4-yl-2-naphthyl)-N-[(1-methyl-1H-imidazol-5-yl)methyl]pyrimidin-2-amine], the inhibition at 10 µM in data set [1] worked out at 98%; in data set [2], 96%. As to `CNc1nccc(-c2cc(NC3CCN(c4cc(C(=N)N)cc(Cl)n4)CC3)c3cc(OC)ccc3c2)n1` [Compound 158, 2-chloro-6-[4-({7-methoxy-3-[2-(methylamino)pyrimidin-4-yl]-1-naphthyl}amino)piperidin-1-yl]pyridine-4-carboximidamide], the inhibition at 10 µM in data set [1] and in data set [2] was 98% each time.

Turning to `CNc1nccc(-c2cc(NC(=O)CNc3nc4ccccc4n3C)c3cc(OC)ccc3c2)n1` [Compound 58, N-{7-methoxy-3-[2-(methylamino)pyrimidin-4-yl]-1-naphthyl}-N~2~-(1-methyl-1H-benzimidazol-2-yl)glycinamide], the inhibition at 10 µM amounted to 98% in data set [1] and 99% in data set [2]. Take `COc1ccc2cc(-c3ccnc(NCCc4ccccc4OC)n3)cc(N3CCNCC3)c2c1` [Compound 124, N-[2-(2-methoxyphenyl)ethyl]-4-(6-methoxy-4-piperazin-1-yl-2-naphthyl)pyrimidin-2-amine]: the inhibition at 10 µM was 97% in data set [1] and 98% in data set [2].

Consider `CCN1CCCC(Nc2nccc(-c3cc(N4CCNCC4)c4cc(OC)ccc4c3)n2)C1` (centres unmarked) [Compound 131, N-(1-ethylpiperidin-3-yl)-4-(6-methoxy-4-piperazin-1-yl-2-naphthyl)pyrimidin-2-amine], for which the inhibition at 10 µM in data set [1] stood at 92%; in data set [2], 97%. On the same counts, the results for `COc1ccc2cc(-c3ccnc(NCc4ccccc4C)n3)cc(N3CCNCC3)c2c1` [Compound 128, 4-(6-methoxy-4-piperazin-1-yl-2-naphthyl)-N-(2-methylbenzyl)pyrimidin-2-amine] are 97% and 98%.
